Read-outs that look alike come from different tables or passages of the source.
How the values were obtained:
[1] = test system: Normal human paranasal sinus mucosa; test: Inhibitory effect on the reduction of ciliary movement in paranasal sinus mucosa induced by LTs; assay type: cell-based; conditions: pranlukast hydrate 1 μM, FIG. 1
Excerpt: Inhibitory Effect of Pranlukast Hydrate on the Reduction of Ciliary Movement in Paranasal Sinus Mucosa Induced by LTs
1) Culturing of Paranasal Sinus Mucosa
Normal human paranasal sinus mucosa obtained at the time of surgical operation of facial trauma or the like was used on the agreement of the patient. The collected paranasal sinus mucosa was thoroughly washed with a culture medium RPMI 1640 (Gibco Life Technologies), cut into 4 mm×4 mm species and then subjected to tissue culture in a culturing chamber of 35 mm×10 mm using RPMI 1640 containing 10% FCS (fetal calf serum). In order to remove mucus and cellular debris, the culture medium was exchanged every other day.
2) Preparation of Test Solutions […]
When a test solution was added to the mucosal tissue, culture medium in the chamber was removed and mucosal tissue was washed with RPMI 1640 and then the test solution (1 ml) was injected. As a control, the ciliary activity was measured in case of injecting only RPMI 1640 into the chamber. By defining the ciliary activity measured just before injection of each test solution (0 minute) as the reference value (100), the ciliary activity measured after injection of each test solution was expressed as percentage (%) of the reference value. […]

[2] = test system: intractable sinusitis patients; test: Effect of pranlukast hydrate on intractable sinusitis (clinical, oral administration); assay type: in vivo, human; conditions: 450 mg/day oral
Procedure: Effect of Pranlukast Hydrate on Intractable Sinusitis
Pranlukast hydrate was orally administered to intractable sinusitis patients (34 persons, average age 54.4 years) at a daily dose of 450 mg (112.5 mg/capsule, 2 capsules per 1 time, twice a day (after every breakfast and supper), every day administration). On the 2 weeks, 4 weeks, 6 weeks and 8 weeks after the administration, 1) improving degree of the nasal mucosa swelling, 2) improving degree of the properties of nasal flow, 3) improving degree of the amount of nasal flow, 4) improving degree of the postnasal discharge, 5) improving degree of the nasal obstruction, 6) improving degree of the nasal flow (frequency of blowing nose) and 7) improving degree of the X-ray shadow of each patient were judged (however, parameters in respective weeks are not constant).

[3] = test system: rats; conditions: both, rat, in vivo
Procedure: (§1) It was confirmed that the compound of the formula (I) or a salt and/or hydrate thereof has sufficiently low toxicity and is sufficiently safe for using it as a medicament. For example, as the acute toxicity of pranlukast hydrate, its minimum lethal dose was 2,000 mg/kg or more (oral or subcutaneous administration), or 30 mg/kg or more (intravenous injection) in mice and rats (both males and females).

[4] = test system: mice; conditions: both, mouse, in vivo
Procedure: as §1

`O=C(Nc1cccc2c(=O)cc(-c3nnn[nH]3)oc12)c1ccc(OCCCCc2ccccc2)cc1` [pranlukast hydrate, 4-oxo-8-[4-(4-phenylbutoxy)benzoylamino]-2-(tetrazol-5-yl)4H-1-benzopyran·½ hydrate] was tested, and the “inhibition of reduction of paranasal sinus mucosa ciliary activity induced by LTC4” value ([1]; LTC4 0.1 μM, ciliary activity after 6 hours) was “has the activity to inhibit reduction of paranasal sinus mucosa ciliary activity”, the “inhibition of reduction of paranasal sinus mucosa ciliary activity induced by LTD4” value ([1]; LTD4 0.1 μM, ciliary activity after 4 hours) was “has the activity to inhibit reduction of paranasal sinus mucosa ciliary activity” and the “Effective ratio, improving degree of the amount of nasal flow” value ([2]; on the 2nd week) was 52%. For the same molecule, the “Effective ratio, improving degree of the nasal flow (frequency of blowing nose)” value (“Effective ratio … (frequency of blowing nose)” below) ([2]; on the 2nd week) was 34%, the “Effective ratio, improving degree of the nasal mucosa swelling” value ([2]; on the 2nd week) was 32% and the “Effective ratio, improving degree of the nasal obstruction” value ([2]; on the 2nd week) was 19%. For the same molecule, the “Effective ratio, improving degree of the postnasal discharge” value ([2]; on the 2nd week) was 39%, the “Effective ratio, improving degree of the properties of nasal flow” value ([2]; on the 2nd week) was 33% and the “Effective ratio, improving degree of the amount of nasal flow” value ([2]; on the 4th week) was 55%. For the same molecule, the “Effective ratio … (frequency of blowing nose)” value ([2]; on the 4th week) was 52%, the “Effective ratio, improving degree of the nasal mucosa swelling” value ([2]; on the 4th week) was 29% and the “Effective ratio, improving degree of the nasal obstruction” value ([2]; on the 4th week) was 21%. For the same molecule, the “Effective ratio, improving degree of the postnasal discharge” value ([2]; on the 4th week) was 38%, the “Effective ratio, improving degree of the properties of nasal flow” value ([2]; on the 4th week) was 48% and the “Effective ratio, improving degree of the amount of nasal flow” value ([2]; on the 6th week) was 68%. For the same molecule, the “Effective ratio … (frequency of blowing nose)” value ([2]; on the 6th week) was 65%, the “Effective ratio, improving degree of the nasal mucosa swelling” value ([2]; on the 6th week) was 43% and the “Effective ratio, improving degree of the nasal obstruction” value ([2]; on the 6th week) was 35%. The “Effective ratio, improving degree of the postnasal discharge” value ([2]; on the 6th week) was 39%, the “Effective ratio, improving degree of the properties of nasal flow” value ([2]; on the 6th week) was 52% and the “Effective ratio, improving degree of the X-ray shadow” value ([2]; on the 8th week) was 83%. The “Effective ratio, improving degree of the amount of nasal flow” value ([2]; on the 8th week) was 65%, the “Effective ratio … (frequency of blowing nose)” value ([2]; on the 8th week) was 60% and the “Effective ratio, improving degree of the nasal mucosa swelling” value ([2]; on the 8th week) was 40%. For the same molecule, the “Effective ratio, improving degree of the nasal obstruction” value ([2]; on the 8th week) was 29%, the “Effective ratio, improving degree of the postnasal discharge” value ([2]; on the 8th week) was 62% and the “Effective ratio, improving degree of the properties of nasal flow” value ([2]; on the 8th week) was 53%. For the same molecule, the “overall clinical effect on subjective symptoms and objective findings of intractable sinusitis” value ([2]; summary of Tables 1 to 7) was “has clinical effects on sinusitis”, the minimum lethal dose ([3]; iv) was no less than 30 mg/kg and the minimum lethal dose ([3]; po) was ≥ 2,000 mg/kg. For the same molecule, the minimum lethal dose ([3]; sc) was ≥ 2,000 mg/kg, the minimum lethal dose ([4]; iv) was no less than 30 mg/kg and the minimum lethal dose ([4]; po) was ≥ 2,000 mg/kg. For the same molecule, the minimum lethal dose ([4]; sc) was ≥ 2,000 mg/kg.
